The results in this text go back to US20200171056A1, “SULFONYLUREA COMPOUNDS IN THE TREATMENT OF DISEASE ASSOCIATED WITH UV-INDUCED DAMAGE” (CeMM - Forschungszentrum für Molekulare Medizin GmbH, priority 2017, published 2020).

Common to all, as to format: cell-based, human
Assay [1] has as its system MUTYH-deficient (ΔMUTYH) cells. Briefly: Survival of MUTYH-deficient cells after UV irradiation. To be noted: pre-incubation with 0.5 mM acetohexamide; 3 days (FIG. 3B). From the text: FIG. 3. Loss of MUTYH mimics acetohexamide function A. Bubble plot displaying the percentage of rescue, defined as the difference in survival of a given cell line treated with acetohexamide compared to untreated, following UV irradiation. The light grey, dark grey bubbles highlight ΔMUTYH, ΔXPA […], and black bubbles indicate the rest of the knockout cell lines and WT HAP1. The size of the bubbles indicates the significance as log10 (p-value). BER: base excision repair; NER: nucleotide excision repair; DSBR; double-strand break repair; MMR: mis-match repair; FA: Fanconi aneamia; DR; direct reversal; TLS; translesion synthesis. B. Survival of WT and MUTYH-deficient (ΔMUTYH) cells with or without 0.5 mM acetohexamide treatment, followed by UV irradiation, as assessed after 3 days using CellTitre-Glo. Loss of MUTYH protein was confirmed by immunoblotting using an anti-MUTYH antibody. ACTIN was used as a loading control. C. Deletion of MUTYH in WT HAP1 or an XPA-deficient background was confirmed by immunoblotting using an anti-MUTYH antibody. TUBULIN was used as a loading control. […]
For UV irradiation, cells were washed with PBS, trypsinized, counted and distributed in equal number then irradiated with different doses of UV as indicated. […] After 72 hours, survival was measured using Cell Titer-Glo (Promega). […]

For a further assay, the system named is WT HAP1 cells. Put plainly: Survival after other DNA damaging agents (MMC, HU, MMS). Conditions: WT HAP1, 0.5 mM for 6 hours, 3 days. The protocol: A. WT and ΔXPA cells were either treated with DMSO or 0.5 mM acetohexamide for 6 hours. Cell cycle profiles were determined using propidium iodide (P1) staining followed by FACS analysis. B-D. Survival of WT HAP1 cells treated with either DMSO or 0.5 mM acetohexamide for 6 hours, followed by exposure to the indicated DNA damaging agents (MMC: mitomycin C; HU: hydroxyl urea; MMS: methyl methanesulfonate). Survival was assessed after 3 days using CellTitre-Glo. E. Cell viability of WT cells treated either with 0.5 mM acetohexamide or 30 μM N-acetylcysteine (NAC) for 6 hours, followed by 30 J/M^2 UV exposure.
Dose Responses and UV Treatment Dose-response curves for the DNA damage agents including mitomycin C (MMC), methyl methanesulfonate (MMS), hydroxyurea (HU), neocarzinostatin (NCS) and illudin S were performed in 96-well plates by seeding 1,000 cells/well in triplicates. The next day, compounds at different concentrations were added and 3 days later, cell viability was assessed using Cell Titer-Glo (Promega)

Another assay deals with MUTYH. Briefly: MUTYH protein levels by immunoblotting. To be noted: WT HAP1, 0.5 mM for 6 hours, alone or with 10 μM MG132 (FIG. 4A-B). The protocol: A. WT HAP1 cells were treated with or without 0.5 mM acetohexamide for 6 hours, then released into compound-free media for the indicated time points and immunoblotted with an anti-MUTYH antibody. ACTIN was used as a loading control. B. WT HAP1 cells were either treated with 0.5 mM acetohexamide alone or with 10 μM of the proteasome inhibitor MG132 for 6 hours and analyzed by immunoblotting using an anti-MUTYH antibody. C. Left panel: colony formation of the WT, ΔXPA or ΔXPA-MUTYH HAP1 cells treated with or without 0.5 mM acetohexamide for 6 hours, followed by 15 J/M^2 UV irradiation and then kept in culture for 10 days. Right panel: Macroscopic colonies were stained with crystal violet and quantified. D. WT, ΔXPA or ΔXPA-MUTYH HAP1 cells were treated with 15 J/M^2 UV or left untreated, then kept in culture for the indicated recovery times and analyzed by dot blot for the presence of CPDs within genomic DNA. E. Number of chromosomal abnormalities per metaphase spread of ΔXPA or ΔXPA-MUTYH HAP1 exposed to different doses of UV irradiation. Data in (E) represented as mean±SEM. F. Survival of WT and ΔMULE HAP1 cells exposed to UV irradiation at different doses and assessed after 3 days, using CellTitre-Glo.
Cells were lysed in lysis buffer composed of RIPA lysis buffer supplemented with protease inhibitors (Sigma) and phosphatase inhibitors (Sigma, NEB). […]
For orientation: In western blotting, separated proteins are transferred to a membrane and probed.

In the next assay the test system is ΔXPA cells. Put plainly: Long-term colony formation assay after UV irradiation. Conditions: 0.5 mM acetohexamide for 6 hours, then UV; 10 days in culture (FIG. 1E). The source says: A. Schematic representation of the experimental setup used to perform the high-throughput drug screen, where drugs were used at five-times maximal plasma concentration (CLOUD; CeMM library of unique drugs). B. Bubble plot displaying the drugs used plotted against cell viability. Light grey bubbles indicate wildtype (WT) cells, dark grey bubbles indicate XPA-deficient cells (ΔXPA). […] C. Chemical structure of acetohexamide. D. Dose-response curve of WT and ΔXPA cells treated with or without 0.5 mM acetohexamide for 6 hours, followed by UV irradiation. Survival was assessed after 3 days, using CellTiter-Glo. […] Error bars indicate SEM (n=3). E. Colony formation using the same conditions indicated in (D), where cells were kept in culture for 10 days following UV irradiation, following which they were fixed and stained.
Cells were treated with UV at different doses with or without drug pre-treatment and then seeded into 6-well plates, at a density of 1,000 cells/well, in duplicates for 2 weeks until visible colonies were formed. Then, the medium was removed, colonies were washed with PBS and fixed using 3.7% paraformaldehyde (PFA) for 1 hour. Subsequently, the PFA was removed and colonies were stained with 0.1% crystal violet in 5% ethanol solution for 1 hour. Next, the staining solution was removed and the wells were washed, imaged and quantified using CellProfiler.

Consider `CC(=O)c1ccc(S(=O)(=O)NC(=O)NC2CCCCC2)cc1` [acetohexamide], for which the “survival of ΔMUTYH cells after UV” value in assay [1] is listed as “did not have a noticeable effect on survival”. The “cellular survival following exposure to HU” value with WT HAP1 cells (then hydroxyurea) is “did not increase cellular survival”. For the same compound, in the assay on WT HAP1 cells (then methyl methanesulfonate), the “cellular survival following exposure to MMS” value was “did not increase cellular survival”. For the same compound, in the assay with WT HAP1 cells (then mitomycin C), the “cellular survival following exposure to MMC” value was “did not increase cellular survival”. In addition, in the assay with MUTYH, the MUTYH protein levels result is on record as “decrease in MUTYH protein levels in a proteasome dependent manner”. For the same compound, in the assay on ΔXPA cells, the “UV sensitivity of ΔXPA cells, long-term colony formation assay” value is reported as “alleviated the UV sensitivity of ΔXPA cells almost to the level of wildtype cells”.
